The results in this text go back to paper PMC12029531, “Selenium in Action: Exploring the Biological Wonders of Hydroselenite Salts” (Molecules, 2025).

A short description of this data set: Water solubility by 1H-qNMR in D2O. It counts as physicochemical. Conditions: 298 K.
Consider `COc1cc(Cc2cnc(N)nc2N)cc(OC)c1OC` [AB-2, trimethoprim], for which the “Water Solubility” value was determined as 284 µg/mL.

In the case of `Nc1ccc(S(=O)(=O)Nc2ncccn2)cc1` [AB-4, sulfadiazine], the “Water Solubility” value stood at 112 µg/mL.

As to `NNC(=O)c1ccncc1` [AB-5, isoniazid], the “Water Solubility” value came to 5350 µg/mL.
